Assay results from US8003660B2, “Modulators of muscarinic receptors” (Vertex Pharmaceuticals Incorporated, priority 2006, dated 2011).

Experiments:
Assay type in all cases: cell-based
M1 muscarinic receptor = target: T1, M1 muscarinic receptor (Homo sapiens, UniProt P11229); assay: Functional mobilization of intracellular calcium (FLIPR) in CHO cells expressing M1; conditions: for EC50: CHO cells expressing M1, FLIPR calcium; for Emax: CHO, 100% = maximum response obtained with the Carbachol control, read-out: M1 Efficacy
T1 construct: expressed in transfected cells; host or cells: CHO (M1-CHO)
T1 sequence (P11229 1-460): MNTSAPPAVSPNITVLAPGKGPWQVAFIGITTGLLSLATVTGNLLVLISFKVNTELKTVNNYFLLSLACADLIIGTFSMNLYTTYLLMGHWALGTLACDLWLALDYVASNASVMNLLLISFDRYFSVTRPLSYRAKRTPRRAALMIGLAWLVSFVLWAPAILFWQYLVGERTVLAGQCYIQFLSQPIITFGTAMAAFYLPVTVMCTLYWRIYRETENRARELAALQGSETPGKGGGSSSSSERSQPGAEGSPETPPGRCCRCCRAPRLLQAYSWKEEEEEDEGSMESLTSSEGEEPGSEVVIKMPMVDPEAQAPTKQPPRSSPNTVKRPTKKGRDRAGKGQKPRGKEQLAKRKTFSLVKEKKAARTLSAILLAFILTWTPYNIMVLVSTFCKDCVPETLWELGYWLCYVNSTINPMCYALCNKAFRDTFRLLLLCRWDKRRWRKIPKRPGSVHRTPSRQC
Protocol: (§1) Functional Mobilization of Intracellular Calcium to Determine Muscarinic Receptor Activity:
(§2) CHO cells expressing muscarinic receptors (M1 to M5) are grown as monolayers in tissue culture flasks at 37° C. in a humidified atmosphere containing 5% CO2 and passaged every 3-5 days. The growth media is Dulbecco's modified eagles medium (DMEM, Gibco Cat# 12430-054), containing 25 mM Hepes and supplemented with Fetal Bovine Serum (Hyclone, cat# SH30071.03), 0.1 mM of MEM non-essential amino acids (GIBCO, Cat# 11140-050), 1 mM MEM Sodium Pyruvate (GIBCO Cat# 11360-070) and 100 units/ml of Penicillin G and 100 μg/ml of Streptomycin (GIBCO Cat# 15140-122). The recombinant muscarinic receptor cell lines are grown under antibiotic pressure with media containing 25 μg/ml zeocin and 500 μg/ml G418 (M1-CHO), 4 μg/ml puromycin, 50 μg/ml zeocin and 2.5 μg/ml blasticidin (M2 and M4-CHO) or 50 μg/ml zeocin and 4 μg/ml puromycin (M3 and M5-CHO).
(§3) Cells are harvested at 80-90% confluence using Versene (GIBCO Cat# 15040-066), collected by centrifugation and seeded 18-24 hrs prior to running the calcium assay at a density of 5,000-10,000 cells/well in […], clear-bottomed 384-well plates (BD Biocoat, poly-D-lysine, Cat#356663). The day of the experiment, the cells are washed with a plate washer (Bioteck Instruments, ELX 405) using bath 1 buffer (140 mM NaCl, 4,5 mM KCl, 2 mM CaCl2, 1 mM MgCl2, 10 mM Hepes-Na, 10 mM Glucose, pH 7.4, with NaOH) containing 1 mM Probenecid. Next, the calcium dye Fluo-3 (25 μl/well of Fluo-3 AM at 4 μM, Molecular Probes F-1241, in Bath 1 buffer containing 1 mM Probenecid) is added to the 25 μl of Bath 1 remaining in each well after the plate wash and the dye is loaded at 37° C. in the tissue culture incubator for 60-90 min. The fluorescent dye is removed using the plate washer with Bath 1 containing 1 mM Probenecid, leaving 25 μl/well of this solution after the wash. Alternatively, cells can be loaded with the calcium indicator from Molecular Devices (Calcium 3 Assay Reagents, Cat #R7181) adding 5 μl of a 5× solution dye in Bath 1 containing 1 mM Probenecid (10 ml per dye flask cat#R7182 to generate a solution […]) to 20 μl of the same buffer. After loading for 60 min, the experiment can be run without having to remove the dye.
(§4) Compounds are prepared at a 2× fold concentration in a 96-well plate (round bottom, Costar Corning cat#3656), by reconstituting the pre-spotted compounds in bath 1 containing 1 mM probenecid. The final concentration DMSO is 0.5%, and the amount of DMSO is normalized across the assay plate. To determine an agonist action of the compounds on muscarinic receptors, the reconstituted compounds are added (25 μl compound/well) to the cell assay plate (containing 25 μl/well) using the multi-channel robotic system of the FLIPR 3 Instrument (Molecular Devices, Sunnyvale, Calif.). To determine a functional inhibitory action of the compounds on muscarinic receptors, the reconstituted compounds are added (25 μl compound/well) to the assay plate and pre-incubated for 15 min prior to adding 25 μl of Carbachol at 3× the EC80 for each muscarinic subtype. Alternatively, the compounds can be co-applied simultaneously with the agonist. In both assay modes, the fluorescence is recorded for 60 sec (excitation wavelength is […] and emission wavelength 540 nm) using the FLIPR 3 instrument.
(§5) The potency, efficacy and selectivity of the muscarinic compounds were evaluated by screening the compound activity across the whole family (M1 to M5 cells). Compounds were also screened for activity on other proteins such as other GPCRs and ion channels to determine selectivity on M4 receptors.

M2 muscarinic receptor = target: T2, M2 muscarinic receptor (Homo sapiens, UniProt P08172); assay: Functional mobilization of intracellular calcium (FLIPR) in CHO cells expressing M2; conditions: for EC50: CHO cells expressing M2, FLIPR calcium; for Emax: CHO, 100% = maximum response obtained with the Carbachol control, read-out: M2 Efficacy
T2 construct: expressed in transfected cells; host or cells: CHO (M2-CHO)
T2 sequence (P08172 1-466): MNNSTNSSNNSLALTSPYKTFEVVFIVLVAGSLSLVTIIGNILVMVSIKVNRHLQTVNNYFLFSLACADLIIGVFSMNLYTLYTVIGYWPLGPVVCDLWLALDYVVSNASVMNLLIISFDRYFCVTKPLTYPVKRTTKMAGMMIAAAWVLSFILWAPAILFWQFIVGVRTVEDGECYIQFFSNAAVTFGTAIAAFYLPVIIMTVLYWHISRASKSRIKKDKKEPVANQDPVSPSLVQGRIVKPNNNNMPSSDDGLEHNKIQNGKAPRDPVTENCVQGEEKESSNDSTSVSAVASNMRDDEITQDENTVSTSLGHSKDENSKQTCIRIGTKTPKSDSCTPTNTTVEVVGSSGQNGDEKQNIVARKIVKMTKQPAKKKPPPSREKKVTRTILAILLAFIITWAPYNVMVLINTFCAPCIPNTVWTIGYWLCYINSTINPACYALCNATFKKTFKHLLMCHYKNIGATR
Protocol: as §1, §2, §3, §4, §5

M3 muscarinic receptor = target: T3, M3 muscarinic receptor (Homo sapiens, UniProt P20309); assay: Functional mobilization of intracellular calcium (FLIPR) in CHO cells expressing M3; conditions: for EC50: CHO cells expressing M3, FLIPR calcium; for Emax: CHO, 100% = maximum response obtained with the Carbachol control, read-out: M3 Efficacy
T3 construct: expressed in transfected cells; host or cells: CHO (M3-CHO)
Protocol: as §1, §2, §3, §4, §5

M4 muscarinic receptor = target: T4, M4 muscarinic receptor (Homo sapiens, UniProt P08173); assay: Functional mobilization of intracellular calcium (FLIPR) in CHO cells expressing M4; conditions: for EC50: CHO cells expressing M4, FLIPR calcium; for Emax: CHO, 100% = maximum response obtained with the Carbachol control, read-out: M4 Efficacy
T4 construct: expressed in transfected cells; host or cells: CHO (M4-CHO)
T4 sequence (P08173 1-479): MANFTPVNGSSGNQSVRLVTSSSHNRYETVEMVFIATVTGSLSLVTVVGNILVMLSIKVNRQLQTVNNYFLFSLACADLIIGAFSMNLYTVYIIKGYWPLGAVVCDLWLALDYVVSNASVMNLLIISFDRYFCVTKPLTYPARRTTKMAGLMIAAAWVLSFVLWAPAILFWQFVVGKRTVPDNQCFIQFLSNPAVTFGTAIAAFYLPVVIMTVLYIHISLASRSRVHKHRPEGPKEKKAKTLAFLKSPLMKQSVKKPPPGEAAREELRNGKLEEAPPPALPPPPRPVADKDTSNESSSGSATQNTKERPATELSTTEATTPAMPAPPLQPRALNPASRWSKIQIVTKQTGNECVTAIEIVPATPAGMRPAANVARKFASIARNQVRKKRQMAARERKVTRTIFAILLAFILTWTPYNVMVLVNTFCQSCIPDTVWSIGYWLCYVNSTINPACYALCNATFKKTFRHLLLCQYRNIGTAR
Protocol: as §1, §2, §3, §4, §5

T3 sequence (P20309 whole entry): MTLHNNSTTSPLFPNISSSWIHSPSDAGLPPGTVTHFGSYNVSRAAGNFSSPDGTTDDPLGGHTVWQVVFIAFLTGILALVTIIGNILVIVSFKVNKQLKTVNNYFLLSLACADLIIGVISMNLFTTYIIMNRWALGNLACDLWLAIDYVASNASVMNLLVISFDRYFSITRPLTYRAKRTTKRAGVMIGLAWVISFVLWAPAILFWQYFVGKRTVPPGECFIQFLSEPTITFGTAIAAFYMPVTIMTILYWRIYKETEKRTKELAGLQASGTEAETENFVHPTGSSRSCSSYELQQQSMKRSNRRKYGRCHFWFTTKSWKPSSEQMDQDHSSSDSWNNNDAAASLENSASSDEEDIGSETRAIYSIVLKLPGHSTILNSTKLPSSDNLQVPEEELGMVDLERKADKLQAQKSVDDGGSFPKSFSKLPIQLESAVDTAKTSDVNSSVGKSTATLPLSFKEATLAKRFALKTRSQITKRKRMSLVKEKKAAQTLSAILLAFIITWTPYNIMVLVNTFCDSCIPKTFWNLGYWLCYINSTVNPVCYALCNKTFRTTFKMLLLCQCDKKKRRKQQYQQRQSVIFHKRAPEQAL

Row | SMILES | EC50 (M1 muscarinic receptor) | Emax (M1 muscarinic receptor) | EC50 (M2 muscarinic receptor) | Emax (M2 muscarinic receptor) | EC50 (M3 muscarinic receptor) | Emax (M3 muscarinic receptor) | EC50 (M4 muscarinic receptor) | Emax (M4 muscarinic receptor)
1 | C[C@@H](C(=O)N[C@@H]1CCC2(CCN(CCC(C)(C)C)CC2)c2cc(F)ccc21)N1CCCC1=O [compound 22] | 2000 to 5000 nM | 25 to 100% | 2000 to 5000 nM | < 25% | > 5000 nM | < 25% | < 2000 nM | 25 to 100%
2 | CC(C)C[C@@H](C(=O)N[C@H]1CCC2(CCN(CCC(C)(C)C)CC2)c2ccccc21)N1CCCC1=O [compound 23] | 2000 to 5000 nM | < 25% | > 5000 nM | < 25% | > 5000 nM | < 25% | < 2000 nM | 25 to 100%
3 | CCN(C(=O)C1CCC(OC)CC1)[C@H]1CCC2(CCN(CCC(C)(C)C)CC2)c2ccccc21 (stereo partly drawn) [compound 24] | > 5000 nM | < 25% | < 2000 nM | 25 to 100% | > 5000 nM | < 25% | < 2000 nM | 25 to 100%
4 | CN1CC(C(=O)N[C@@H]2CCC3(CCN(CCC(C)(C)C)CC3)c3ccccc32)CC1=O (stereo partly drawn) [compound 25] | > 5000 nM | < 25% | > 5000 nM | < 25% | > 5000 nM | < 25% | < 2000 nM | 25 to 100%
5 | CCC(=O)C1NCCC1C(=O)N[C@H]1CCC2(CCN(CCC(C)(C)C)CC2)c2cc(F)ccc21 (stereo partly drawn) [compound 26] | < 2000 nM | 25 to 100% | > 5000 nM | < 25% | > 5000 nM | < 25% | < 2000 nM | 25 to 100%
6 | CC(C)(C)CCN1CCC2(CC[C@H](NC(=O)C3CCCO3)c3ccc(F)cc32)CC1 (stereo partly drawn) [compound 27] | < 2000 nM | 25 to 100% | < 2000 nM | < 25% | > 5000 nM | < 25% | < 2000 nM | 25 to 100%
7 | CC(C)(C)CCN1CCC2(CC[C@H](NC(=O)CC3CCCC3=O)c3ccc(F)cc32)CC1 (stereo partly drawn) [compound 28] | < 2000 nM | 25 to 100% | 2000 to 5000 nM | < 25% | > 5000 nM | < 25% | < 2000 nM | 25 to 100%
8 | CC(C)(C)CCN1CCC2(CC[C@@H](NC(=O)CCN3CCCC3=O)c3ccc(F)cc32)CC1 [compound 29] | < 2000 nM | 25 to 100% | < 2000 nM | 25 to 100% | > 5000 nM | < 25% | < 2000 nM | 25 to 100%
9 | CCN(C(=O)C1CCOC(C)(C)C1)[C@H]1CCC2(CCN(CCC(C)(C)C)CC2)c2ccccc21 (stereo partly drawn) [compound 30] | > 5000 nM | < 25% | > 5000 nM | < 25% | > 5000 nM | < 25% | 2000 to 5000 nM | 25 to 100%
10 | CC(C)(C)CCN1CCC2(CC[C@H](NC(=O)C3CCCO3)c3ccccc32)CC1 (stereo partly drawn) [compound 31] | < 2000 nM | 25 to 100% | < 2000 nM | < 25% | > 5000 nM | < 25% | < 2000 nM | 25 to 100%
11 | CC(=O)N[C@@H]1c2ccccc2C2(CCN(CCC(C)(C)C)CC2)CC1(F)F [compound 32] | < 2000 nM | 25 to 100% | < 2000 nM | 25 to 100% | > 5000 nM | < 25% | < 2000 nM | 25 to 100%
12 | CC(=O)NCC(=O)N[C@H]1CCC2(CCN(CCC(C)(C)C)CC2)c2cc(F)ccc21 [compound 33] | < 2000 nM | 25 to 100% | < 2000 nM | 25 to 100% | > 5000 nM | < 25% | < 2000 nM | 25 to 100%
13 | CCN(C(=O)C(C)NC(C)=O)[C@H]1CCC2(CCN(CCC(C)(C)C)CC2)c2ccccc21 (stereo partly drawn) [compound 34] | < 2000 nM | 25 to 100% | 2000 to 5000 nM | < 25% | > 5000 nM | < 25% | < 2000 nM | 25 to 100%
14 | CC(C)NC(=O)C1CCC2(CCN(CCC(C)(C)C)CC2)c2ccccc21 (stereo not drawn) [compound 35] | > 5000 nM | < 25% | > 5000 nM | < 25% | > 5000 nM | < 25% | < 2000 nM | 25 to 100%
15 | CC(C)(C)CCN1CCC2(CC[C@H](NC(=O)C3CCN(C(=O)c4ccccc4)CC3)c3ccccc32)CC1 [compound 36] | < 2000 nM | 25 to 100% | > 5000 nM | < 25% | > 5000 nM | < 25% | < 2000 nM | 25 to 100%
